In brackets after ≈: the same amount, converted by molar mass. Read-outs that look alike come from different tables or passages of the source.
Columns and labels:
[1] = tested on: M. tuberculosis strain H37Rv; format: cell-based, Mycobacterium tuberculosis; settings: H37Rv background
[2] = tested on: M. tuberculosis inhA overexpression strain mc^24914; test: microbe, parasite or virus in culture; format: cell-based, Mycobacterium tuberculosis; settings: for MIC: Mycobacterium tuberculosis
[3] = tested on: M. tuberculosis strain H37Rv; settings: cited from earlier work
[4] = read-out: MIC (µM) mc^24914, Table 1, commercial material, […]
[5] = read-out: MIC (µM) mc^24914, Table 2, synthetic material

Row | Compound | MIC [2, 4] [µM] | MIC [2, 5] [µM] | other results
1 | COc1cccc(Nc2ccc([N+](=O)[O-])c3nonc23)c1 [JSF-2164, N-(3-methoxyphenyl)-7-nitrobenzo[c][1,2,5]oxadiazol-4-amine] | 30 (≈ 8.59 µg/mL) | 25 (≈ 7.16 µg/mL) | mutation rate (spontaneous resistance) [1]: ~10^−5; MIC shift versus the inhA overexpression strain as compared to H37Rv ([2]; mc^24914 vs H37Rv): 3 fold
2 | COc1cccc(Nc2ccc(N)c3nonc23)c1 [JSF-3616, N4-(3-methoxyphenyl)-benzo[c][1,2,5]oxadiazole-4,7-diamine] |  | 32 (≈ 8.2 µg/mL) | 
3 | COc1cccc(Nc2ccc3nonc3c2N)c1 [JSF-3617, N5-(3-methoxyphenyl)benzo[c][1,2,5]oxadiazole-4,5-diamine] |  | 125 (≈ 32 µg/mL) | 
4 | NNC(=O)c1ccncc1 [isoniazid, reference compound] | 2.5 (≈ 0.343 µg/mL) | 2.5 (≈ 0.343 µg/mL) | 
5 | O=[N+]([O-])c1cn2c(n1)OC[C@@H](OCc1ccc(OC(F)(F)F)cc1)C2 [pretomanid] |  |  | frequency of resistance [3]: 10^−5 to 10^−6
6 | Oc1cc(Cl)ccc1Oc1ccc(Cl)cc1Cl [triclosan, reference compound] | 120 (≈ 34.7 µg/mL) |  | 

— PMC7801736 (ACS infectious diseases, 2019)
